From ChEMBL document CHEMBL1201862, “PubChem BioAssay data set” (2004)
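Tested at 5 concentrations; 48 h exposure; 96-well plates; endpoints linearly interpolated, else capped at highest concentration. The concentration for 50% growth inhibition is given as GI50.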 Activity calls are given as the source filed them. Cut-off read from the data, not from the text of the source: active = GI50 up to about 1.1 µM and inactive = higher.

Legend:
Experiment in all cases: inhibition of tumour cell growth, NCI panel, 48 h
[1] = system: HL-60
[2] = system: LOX IMVI
[3] = system: PC-3
[4] = system: ACHN
[5] = system: RPMI-8226
[6] = system: HOP-62
[7] = system: HOP-92
[8] = system: TK-10
[9] = system: UACC-257
[10] = system: CCRF-CEM
[11] = system: UO-31
[12] = system: NCI-H522
[13] = system: HT-29
[14] = system: IGROV-1
[15] = system: HCT-116
[16] = system: NCI-H23
[17] = system: RXF 393
[18] = system: SK-MEL-28
[19] = system: OVCAR-4
[20] = system: Hs-578T

Measured: GI50

CSc1nc(Cl)c(Br)c(Nc2cnc(O)nc2O)n1
inactive: [1] 2.06 µM | [2] 19.4 µM | [3] 18.8 µM | [4] 18.7 µM | [5] 28.3 µM | [6] 16.9 µM | [7] 13.1 µM | [8] 14.7 µM | [9] 19.2 µM | [10] 17.7 µM | [11] 20.3 µM | [12] 1.87 µM | [13] 15.8 µM | [14] 6.34 µM | [15] 14.6 µM | [16] 17.3 µM | [17] 22.1 µM | [18] 29.5 µM | [19] 15.6 µM

O=C(CC(C(=O)c1ccco1)c1ccsc1)c1ccco1 (stereo not given)
inactive: [1] 89.7 µM | [2] > 100 µM | [4] > 100 µM | [5] > 100 µM | [6] > 100 µM | [7] > 100 µM | [8] > 100 µM | [9] > 100 µM | [10] > 100 µM | [11] 58.9 µM | [12] 76.9 µM | [20] > 100 µM | [13] > 100 µM | [14] > 100 µM | [15] > 100 µM | [16] > 100 µM | [17] 48.9 µM | [18] > 100 µM | [19] 75.2 µM

O=c1[nH]c(=O)n(COCCOCc2ccccc2)cc1Nc1ccccc1
inactive: [1] 41.9 µM | [2] > 100 µM | [3] > 100 µM | [4] > 100 µM | [6] > 100 µM | [7] > 100 µM | [8] > 100 µM | [9] > 100 µM | [10] > 100 µM | [11] > 100 µM | [12] > 100 µM | [13] > 100 µM | [14] > 100 µM | [15] > 100 µM | [16] > 100 µM | [17] > 100 µM | [18] > 100 µM | [19] > 100 µM

C=CCN1CCC(O)(c2cc(C(=O)OCC)[nH]c2-c2cc(C)no2)C1 (stereo not given)
inactive: [1] > 100 µM | [2] > 100 µM | [3] > 100 µM | [4] > 100 µM | [5] > 100 µM | [7] > 100 µM | [8] > 100 µM | [9] > 100 µM | [10] > 100 µM | [11] > 100 µM | [12] > 100 µM | [13] > 100 µM | [14] > 100 µM | [15] > 100 µM | [16] > 100 µM | [17] > 100 µM | [18] > 100 µM | [19] > 100 µM

CC(C)=CCC12Cc3ccc(O)cc3C(C(C)CN1)C2C (stereo not given)
inactive: [1] 28.1 µM | [2] 42.9 µM | [4] > 100 µM | [5] 37.2 µM | [6] > 100 µM | [7] 44 µM | [8] > 100 µM | [9] 27.3 µM | [10] 46.8 µM | [11] 27 µM | [20] 67.6 µM | [13] 44.6 µM | [14] > 100 µM | [15] 59.7 µM | [16] > 100 µM | [17] > 100 µM | [18] 49.9 µM | [19] > 100 µM

C=CCC1(CN(C)C)CC/C(=C\c2cc(OC)c(OC)c(OC)c2)C1=O (stereo not given)
inactive: [1] 6.81 µM | [2] 23.2 µM | [4] 25.8 µM | [5] 24.5 µM | [6] 77.8 µM | [7] 90.6 µM | [8] 18.8 µM | [9] 27.7 µM | [10] 23.3 µM | [11] 26.5 µM | [12] 15.1 µM | [13] 20.5 µM | [14] 29.4 µM | [15] 17.5 µM | [16] 35 µM | [17] 19.2 µM | [18] 34.2 µM | [19] 22.2 µM

CC(=O)NC1C(OCc2ccccc2)OC(CO)C(O)C1OCC(=O)N[C@@H](C)C(=O)N[C@H](CCC(=O)NCCNc1ccc([N+](=O)[O-])c2[nH]c3ccccc3c(=O)c12)C(N)=O (stereo not given in full)
inactive: [1] 54.7 µM | [2] 25.9 µM | [4] 12.1 µM | [5] 23 µM | [6] 36.3 µM | [7] 21.6 µM | [8] 15.4 µM | [9] 22.1 µM | [10] 67.6 µM | [11] 13.8 µM | [12] 7.62 µM | [20] 71.9 µM | [13] 19.4 µM | [15] 6.56 µM | [16] 32.3 µM | [18] 33.2 µM | [19] 23.3 µM

Cc1nc(N)c(N2CCN(Cc3ccccc3)CC2)c(O)n1
inactive: [1] > 100 µM | [2] > 100 µM | [3] > 100 µM | [4] > 100 µM | [5] > 100 µM | [6] > 100 µM | [8] > 100 µM | [9] > 100 µM | [10] > 100 µM | [11] > 100 µM | [12] > 100 µM | [20] > 100 µM | [13] > 100 µM | [15] > 100 µM | [16] > 100 µM | [18] > 100 µM

COc1cc(C2c3cccc4cccc(c34)C3CCC(=O)N32)cc(OC)c1O (stereo not given)
inactive: [1] > 50 µM | [3] > 50 µM | [4] > 50 µM | [5] > 50 µM | [6] > 50 µM | [7] > 50 µM | [9] > 50 µM | [10] > 50 µM | [11] > 50 µM | [13] > 50 µM | [14] > 50 µM | [15] > 50 µM | [16] > 50 µM | [17] > 50 µM | [18] > 50 µM | [19] > 50 µM

CN(C)/C=C/C=C(/C=N/S(=O)(=O)C(F)(F)F)C1C=CN(S(=O)(=O)C(F)(F)F)C=C1
inactive: [1] 19.8 µM | [2] 42.8 µM | [4] 28.8 µM | [5] 38.3 µM | [6] 39.4 µM | [7] 32.7 µM | [8] 36.6 µM | [9] 23.1 µM | [10] 27.1 µM | [11] 29.1 µM | [12] 21.6 µM | [20] 69.2 µM | [13] 27.5 µM | [14] 54.3 µM | [15] 29.2 µM | [16] 23.3 µM | [18] 91.8 µM | [19] 15.8 µM

CC(C)C1=Cc2ccc3c(c2C(=O)C1=O)CCCC3(C)C [MILTIRONE]
inactive: [1] 2.37 µM | [2] 12.2 µM | [4] 5.82 µM | [5] 2.12 µM | [6] 19.6 µM | [7] 4.18 µM | [8] 3.14 µM | [9] 3.08 µM | [10] 1.17 µM | [11] 6.64 µM | [12] 1.79 µM | [13] 20.1 µM | [14] 5.93 µM | [15] 1.81 µM | [16] 13.7 µM | [17] 1.85 µM | [18] 5.62 µM | [19] 1.77 µM
